The results in this text go back to patent US6599943B1, “Use of hydroxyguanidines” (WaPharm AB, priority 1996, dated 2003).

Experiment [1] has as its system rat hearts (reperfusion injury). As to the kind of experiment: Reperfusion injury of the heart: coronary artery occlusion/reperfusion arrhythmias. Format: in vivo. As to conditions: for Ventricular fibrilation Insidence (%) / Ventricular fibrilation Insidence (number of animals) / Ventricular tachycardia Insidence (%) / Ventricular tachycardia Insidence (number of animals) / Ventricular fibrilation Duration / Ventricular tachycardia Duration / Ventricular fibrilation Duration (s) / Ventricular tachycardia Duration (s): 20 min reperfusion; for Ventricular fibrilation Duration / Ventricular tachycardia Duration / Ventricular fibrilation Duration (s) / Ventricular tachycardia Duration (s): mean ±SEM; for effect on incidence and duration of ventricular tachycardias and fibrillations and on mortality, in words: versus control, p<0.05. The text has this:
Capacity of a hydroxyguanidine (PR5) to afford a tissue protective effect in the heart. […] In this model the coronary arteries of rat hearts were occluded, and after some time reperfusion was allowed to occur. During reperfusion events of cardiac arrhythmias are observed. They are well known to be related to the accumulation of oxygen derived free radicals. These arrhythmias are monitored in the animals treated with PR5 and in control animals either receiving no drug or allopurinol. Allopurinol was used as a control because it is well known from the litterature as an agent capable of preventing the generation of oxygen derived free radicals. In brief, rats were anaesthetised with sodium pentobarbital and ventilated with air using a respirator for small animals at a pressure 15-20 cm H2O and a […] rate of 60 strokes/min. ECG (electrocardiogram) and systemic blood pressure was registered on a Physiograph DMP-4B (Narco Bio-Systems, Houston, USA) using, respectively, a standard lead II and a pressure transducer PR-1500 (Narco Bio-Systems, Houston, USA) contected via a catheter to the left carotid artery. The chest was opened via the fourth intercostal space, the pericardium incised and a sling (4/0 silk Medicor, Budapest, Hungary) was placed around the left coronary artery close to its origin. The silk ligature was passed through a piece of plastic tubing, the chest was partially closed and the animal was allowed to recover for 10 min. PR-5, dissolved in 0.9% NaCl, was then injected i.v. 10 min before the occlusion of the coronary artery at doses 1, 3 or 10 mg/kg body weight. As control served the same volume of 0.9% NaCl. The coronary artery was occluded for a period of 10 min by applying tension to the ligature and pressing the tube onto the heart surface. Reperfusion was initiated by removing the clamp and releasing the tension on the ligature and allowing the perfusion to continue for 20 min. Ventricular ectopic activity was assessed during the 20 min reperfusion period by measuring the duration of ventricular tachycardias and ventricular fibrillations from the ECG curves. The results are shown in Table 2, where the results are presented as mean ±SEM (in seconds) for the total duration of ventricular tachycardias and ventricular fibrillations during the 20 min reperfusion period, (or until eventual death of the animal). The incidence of animals showing ventricular tachycardia and ventricular fibrillation are also given Table 2 as the number of animals showing ventricular tachycardia and ventricular fibrillation. Figures in parenthese relate to incidents expressed in % of the total number of animals.
In Table 2 a star “*” denotes a significant difference from the control at p<0.05 using the appropriate statistical test. Alp=allopurinol. n=number of animals tested.

In experiment [2] the target is T1, bovine milk xanthine oxidase (Bos taurus, UniProt P80457). The settings on record: 20 μM allopurinol, 100 μM xanthine, 0.004 units/ml xanthine oxidase.
Target sequence in this assay (P80457 2-1332): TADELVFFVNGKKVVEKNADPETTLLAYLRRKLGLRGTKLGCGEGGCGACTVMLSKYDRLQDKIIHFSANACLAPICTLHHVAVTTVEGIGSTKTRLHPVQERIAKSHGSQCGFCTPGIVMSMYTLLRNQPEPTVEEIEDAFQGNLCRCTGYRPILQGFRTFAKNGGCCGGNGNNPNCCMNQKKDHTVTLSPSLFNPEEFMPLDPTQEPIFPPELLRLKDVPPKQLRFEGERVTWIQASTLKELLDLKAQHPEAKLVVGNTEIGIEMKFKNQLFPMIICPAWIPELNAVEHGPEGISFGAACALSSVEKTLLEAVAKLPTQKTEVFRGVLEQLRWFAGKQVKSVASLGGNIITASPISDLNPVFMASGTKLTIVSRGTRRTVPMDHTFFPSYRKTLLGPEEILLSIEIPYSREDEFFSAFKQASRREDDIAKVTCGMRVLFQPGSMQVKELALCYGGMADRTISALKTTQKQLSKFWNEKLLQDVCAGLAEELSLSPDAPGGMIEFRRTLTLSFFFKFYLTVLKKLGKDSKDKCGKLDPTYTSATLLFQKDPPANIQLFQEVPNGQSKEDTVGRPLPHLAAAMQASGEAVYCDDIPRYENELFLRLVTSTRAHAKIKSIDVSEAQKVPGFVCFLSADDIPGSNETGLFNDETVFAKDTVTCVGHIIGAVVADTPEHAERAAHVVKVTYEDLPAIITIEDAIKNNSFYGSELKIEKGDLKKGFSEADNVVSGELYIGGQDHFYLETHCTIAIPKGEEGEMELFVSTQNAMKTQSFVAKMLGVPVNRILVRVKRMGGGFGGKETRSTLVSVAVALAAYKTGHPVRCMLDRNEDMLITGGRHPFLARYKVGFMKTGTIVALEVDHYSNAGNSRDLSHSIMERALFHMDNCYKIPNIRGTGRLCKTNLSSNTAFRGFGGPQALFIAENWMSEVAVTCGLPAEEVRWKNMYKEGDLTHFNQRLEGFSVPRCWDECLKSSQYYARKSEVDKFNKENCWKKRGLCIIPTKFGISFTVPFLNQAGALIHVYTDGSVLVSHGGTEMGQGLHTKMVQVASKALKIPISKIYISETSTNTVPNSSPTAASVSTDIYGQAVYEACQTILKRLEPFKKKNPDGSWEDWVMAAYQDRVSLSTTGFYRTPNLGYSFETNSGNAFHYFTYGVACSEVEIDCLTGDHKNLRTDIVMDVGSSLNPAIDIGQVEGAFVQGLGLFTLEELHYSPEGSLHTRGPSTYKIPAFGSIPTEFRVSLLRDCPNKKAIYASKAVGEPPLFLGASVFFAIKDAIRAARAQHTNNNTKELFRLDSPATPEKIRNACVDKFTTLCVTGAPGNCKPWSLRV
Procedure: Capacity of allopurinol to inhibit the reduction of hydroxyguanidines by xanthine oxidase. […] In these tests varying amounts of guanoxabenz was added to assays yielding 150 μl final volumes and containing final concentrations 0.004 units/ml of bovine milk xanthine oxidase (Sigma, St. Louis, MO., USA), 100 μM xanthine, 20 μM allopurinol, 50 pM α2-adrenoceptors (in HT29 cell membranes), 33 mM Tris HCl, 1 mM EDTA, pH 7.5, and incubating for 1 hour at 25° C.
Another experiment concerns rat spleen tissue. As to the kind of experiment: Formation of uric acid in spleen tissue under anaerobic conditions, HPLC. The protocol: Capacity of a hydroxyguanidine (PR5) to sustain the formation of uric acid in tissues. […] Pieces of 0.6 g of rat spleen tissue were incubated in 7.5 ml argon-saturated Tris-Ringer buffer (4 mM KCl, 100 mM NaCl, 2 mM CaCl2, 2 mg/ml glucose and 40 mM TrisHCl, pH 7.4) in 50 ml Erlenmeyer flasks at 37° C., care being taken to maintain an atmosphere of argon above the incubations. As aerobic control served identical incubations, except that the buffers were saturated with air and the incubations performed under air. After 30 min the flasks were opened and the tissues minced to obtain tissue cubes with about 1 mm sides. […] The supernatants were then centrifuged using Ultrafree-MC Biomax-10 Millipore filtration devices at 5000×g for 0.5 hr in order to obtain an essentially particle free preparation which was being kept at −20° C. until analysed for the uric acid content using HPLC.
For analysing the uric acid content the above preparations were thawed and 0.05 ml aliquots were injected onto Waters 2690 Separation Module using a 2.1×250 mm Vydac RP C18, 90A, 201HS1010 column using a linear gradient of 10 mM KH2PO4 (A) and 10 mM KH2PO4 in 50% (v/v) methanol/water (B) (both at pH 4.55 adjusted with phosphoric acid). […] The uric acid peak was eluted after 13 min and was identified and detected according to the spectrum of a standard uric acid reference.

The target of experiment [3] is T1, bovine milk xanthine oxidase. Nature of the experiment: Capacity to sustain oxidation of xanthine by xanthine oxidase in the absence of oxygen, spectrophotometric. The format is biochemical. On the set-up: host or cells: bovine milk. The procedure: Capacities of a series of hydroxyguanidine to sustain the oxidation of xanthine by xanthine oxidase in the absence of oxygen. The capacities of various hydroxyguanidines to sustain the oxidation of xanthine was assayed by using a spectrophotometric method. In this method bovine milk xanthine oxidase was injected to a Helma® sealable cuvette for anaerobic application thereby creating 1 ml of a reaction mixture that contained reagents as follows: 50 μM of a hydroxyguanidine, 50 μM xanthine, 0.05 units/ml bovine milk xanthine oxidase, 50 mM Tris and 1.5 mM EDTA; the pH of the reaction mixture being 7.5, and the temperature 20° C. Anaerobic conditions were assured by pre-gassing all solutions used for 5-10 min, with nitrogen. The rate of formation of uric acid was monitored spectrophotometrically by measuring the increase in absorbance at 295 nm (the absorption maximum for uric acid) at intervals. The relative capacities of the hydroxyguanidines to sustain oxidation of xanthine were estimated from the derivative of the initial linear phase of the curves. To obtain blank readings an equal volume of the solvent of the hydroxyguanidine (water) was added to the reaction mixture in separate experiments and the initial rate of absorbance change was substracted from the rate readings of the tested hydroxyguanidine.
Exemplary initial rates for the rate of the support of the oxidation of xanthine obtained by assaying the exemplary hydroxyguanidines listed above by the method in the present example are furthermore given in Table 2: […]
Target sequence in this assay (P80457 whole entry): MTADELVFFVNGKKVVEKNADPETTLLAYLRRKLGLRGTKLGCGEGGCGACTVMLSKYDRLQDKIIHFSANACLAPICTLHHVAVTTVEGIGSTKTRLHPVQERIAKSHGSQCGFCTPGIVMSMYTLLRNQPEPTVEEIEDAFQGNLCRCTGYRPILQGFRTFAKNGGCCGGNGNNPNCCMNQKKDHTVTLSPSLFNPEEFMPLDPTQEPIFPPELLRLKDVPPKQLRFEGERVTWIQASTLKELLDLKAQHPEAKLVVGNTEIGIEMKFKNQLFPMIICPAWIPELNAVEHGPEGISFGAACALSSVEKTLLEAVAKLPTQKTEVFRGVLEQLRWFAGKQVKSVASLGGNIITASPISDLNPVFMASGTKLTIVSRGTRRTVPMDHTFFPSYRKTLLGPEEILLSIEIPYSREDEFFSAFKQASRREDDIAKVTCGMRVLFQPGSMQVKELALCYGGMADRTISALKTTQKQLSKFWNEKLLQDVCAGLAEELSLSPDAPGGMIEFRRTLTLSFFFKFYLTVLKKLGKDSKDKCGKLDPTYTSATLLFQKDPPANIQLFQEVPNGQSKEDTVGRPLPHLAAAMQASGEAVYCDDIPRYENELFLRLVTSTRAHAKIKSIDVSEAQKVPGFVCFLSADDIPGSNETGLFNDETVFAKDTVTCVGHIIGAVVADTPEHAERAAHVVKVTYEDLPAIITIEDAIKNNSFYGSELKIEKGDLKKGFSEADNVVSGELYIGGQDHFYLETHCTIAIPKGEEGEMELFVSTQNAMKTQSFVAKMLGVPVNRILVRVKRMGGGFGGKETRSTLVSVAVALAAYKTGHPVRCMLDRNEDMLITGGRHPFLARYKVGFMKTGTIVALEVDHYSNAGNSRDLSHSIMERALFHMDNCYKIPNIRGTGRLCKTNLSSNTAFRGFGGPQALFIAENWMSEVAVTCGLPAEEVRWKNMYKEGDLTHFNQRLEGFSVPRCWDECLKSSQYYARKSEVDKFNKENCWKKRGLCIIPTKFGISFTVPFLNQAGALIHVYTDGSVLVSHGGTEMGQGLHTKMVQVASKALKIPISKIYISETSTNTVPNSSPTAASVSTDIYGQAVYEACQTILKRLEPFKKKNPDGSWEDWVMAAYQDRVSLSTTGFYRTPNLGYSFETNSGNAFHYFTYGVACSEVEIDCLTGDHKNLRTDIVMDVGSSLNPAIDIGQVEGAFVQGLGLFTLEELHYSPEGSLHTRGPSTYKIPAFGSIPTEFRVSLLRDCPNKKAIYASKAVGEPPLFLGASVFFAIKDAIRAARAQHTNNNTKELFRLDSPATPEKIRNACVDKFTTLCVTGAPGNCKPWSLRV

[4] abbreviates: 1 mg/kg i.v. 10 min before occlusion.
Where [5] appears, read: 3 mg/kg i.v. 10 min before occlusion.

Where a name gives a salt, the structure may show the parent alone. Marks after values point to notes of the source that are not given here.

Take `Oc1ncnc2[nH]ncc12` [Allopurinol, 1H-pyrazolo[3,4-d]pyrimidin-4ol, reference compound]: in experiment [1] (10 mg/kg), the “Mortality Insidence (%)” value amounted to 7%, the “Mortality Insidence (number of animals)” value is reported as 1, the “Ventricular fibrilation Insidence (%)” value was 50% and the “Ventricular fibrilation Insidence (number of animals)” value stood at 7. Besides, in experiment [1] (10 mg/kg), the “Ventricular tachycardia Insidence (%)” value came out at 64%, the “Ventricular tachycardia Insidence (number of animals)” value is reported as 9, the “Ventricular fibrilation Duration” value came out at 30 ± 10 s and the “Ventricular tachycardia Duration” value amounted to 59 ± 12 s. Also, the “effect on incidence and duration of ventricular tachycardias and fibrillations and on mortality, in words” value in experiment [1] is on record as “reduces these indices, although to a lesser extent than 3-10 mg/kg of PR5”. For the same molecule, the “decrease in the apparent affinity of guanoxabenz on addition of allopurinol” value in experiment [2] is on record as “about 24 fold”.

In the case of `COc1ccc(C=NNC(=N)NO)c(Cl)c1OC` [PR5, N-(3,4-Dimethoxy-2-chlorobenzylideneamino)-N′-hydroxyguanidine tosylate], in experiment [1] (1 mg/kg i.v.), the “Mortality Insidence (%)” value is listed as 14%, the “Mortality Insidence (number of animals)” value came to 2, the “Ventricular fibrilation Insidence (%)” value was 57% and the “Ventricular fibrilation Insidence (number of animals)” value is on record as 8. For the same molecule, in experiment [1] (1 mg/kg i.v.), the “Ventricular fibrilation Duration” value stood at 34 ± 9 s and the “Ventricular tachycardia Duration” value is given as 61 ± 11 s. In experiment [1] (setting [4]), the “Ventricular tachycardia Insidence (%)” value came out at 79% and the “Ventricular tachycardia Insidence (number of animals)” value is reported as 11. Moreover, in experiment [1] (3 mg/kg i.v.), the “Mortality Insidence (%)” value is recorded as 0 (0)* %, the “Mortality Insidence (number of animals)” value is on record as 0 (0)*, the “Ventricular fibrilation Insidence (%)” value came out at 43% and the “Ventricular fibrilation Insidence (number of animals)” value is listed as 6. Also, in experiment [1] (3 mg/kg i.v.), the “Ventricular fibrilation Duration (s)” value is listed as 20 ± 7* s and the “Ventricular tachycardia Duration (s)” value is 38 ± 7* s. In experiment [1] (setting [5]), the “Ventricular tachycardia Insidence (%)” value was found to be 64% and the “Ventricular tachycardia Insidence (number of animals)” value stood at 9. In experiment [1] (10 mg/kg), the “Mortality Insidence (%)” value is on record as 7%, the “Mortality Insidence (number of animals)” value is 1, the “Ventricular fibrilation Insidence (%)” value came out at 36% and the “Ventricular fibrilation Insidence (number of animals)” value came out at 5. Moreover, in experiment [1] (10 mg/kg), the “Ventricular tachycardia Insidence (%)” value was found to be 57%, the “Ventricular tachycardia Insidence (number of animals)” value was 8, the “Ventricular fibrilation Duration (s)” value is listed as 17 ± 5* s and the “Ventricular tachycardia Duration (s)” value is reported as 34 ± 7* s. In experiment [1], the “effect on incidence and duration of ventricular tachycardias and fibrillations and on mortality, in words” value was “significant decrease”. In addition, the “uric acid in original incubation medium” value with rat spleen tissue (0.5 mM PR5, anaerobic (argon), 60 min, 37° C.) came out at 285.5 µmol/L. Besides, the “formation of uric acid under the anaerobic conditions, in words” value in the experiment on rat spleen tissue (0.5 mM PR5, compared with aerobic control) is reported as “restored completely to that of the aerobic control”. In addition, in experiment [3] (50 μM hydroxyguanidine, 50 μM xanthine, 0.05 units/ml xanthine oxidase, anaerobic, pH 7.5, 20° C., blank subtracted), the “V = 1000 × (Δabs 295 nm) min^−1 (initial rate of the support of the oxidation of xanthine)” value is reported as 96 1000 × (Δabs 295 nm) min^−1. Further, the “activity / capacity to undergo reduction (reaction A), in words” value in experiment [3] (as disclosed in Example 7) was “high activity”.
